Measured values as given in patent US20200270233A1, “DHFR INHIBITORS, COMPOSITIONS, AND METHODS RELATED THERETO” (Vyera Pharmaceuticais LLC, priority 2017, published 2020).
Like-named read-outs stand apart in the source and are kept apart here.

Assays:
T. cruzi DHFR (tcDHFR) = T. cruzi DHFR (tcDHFR) (Trypanosoma cruzi, UniProt Q27793); assay: biochemical; details: for Average DHFR selectivity (h/tc): hDHFR IC50/tcDHFR IC50
hDHFR = biological target: T1, hDHFR (Homo sapiens, UniProt P00374); assay type: biochemical
T1 sequence (P00374 1-187): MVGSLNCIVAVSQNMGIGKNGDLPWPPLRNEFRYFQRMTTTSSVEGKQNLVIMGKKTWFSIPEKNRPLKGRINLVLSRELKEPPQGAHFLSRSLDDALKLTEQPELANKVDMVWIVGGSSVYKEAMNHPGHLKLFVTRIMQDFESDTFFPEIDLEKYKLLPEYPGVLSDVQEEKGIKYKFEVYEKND

T. gondii DHFR (tgDHFR) = biological target: T2, T. gondii DHFR (tgDHFR) (Toxoplasma gondii, UniProt Q07422); assay: biochemical; details: for Average DHFR selectivity (h/tg): hDHFR IC50/tgDHFR IC50
T2 sequence (Q07422 1-610): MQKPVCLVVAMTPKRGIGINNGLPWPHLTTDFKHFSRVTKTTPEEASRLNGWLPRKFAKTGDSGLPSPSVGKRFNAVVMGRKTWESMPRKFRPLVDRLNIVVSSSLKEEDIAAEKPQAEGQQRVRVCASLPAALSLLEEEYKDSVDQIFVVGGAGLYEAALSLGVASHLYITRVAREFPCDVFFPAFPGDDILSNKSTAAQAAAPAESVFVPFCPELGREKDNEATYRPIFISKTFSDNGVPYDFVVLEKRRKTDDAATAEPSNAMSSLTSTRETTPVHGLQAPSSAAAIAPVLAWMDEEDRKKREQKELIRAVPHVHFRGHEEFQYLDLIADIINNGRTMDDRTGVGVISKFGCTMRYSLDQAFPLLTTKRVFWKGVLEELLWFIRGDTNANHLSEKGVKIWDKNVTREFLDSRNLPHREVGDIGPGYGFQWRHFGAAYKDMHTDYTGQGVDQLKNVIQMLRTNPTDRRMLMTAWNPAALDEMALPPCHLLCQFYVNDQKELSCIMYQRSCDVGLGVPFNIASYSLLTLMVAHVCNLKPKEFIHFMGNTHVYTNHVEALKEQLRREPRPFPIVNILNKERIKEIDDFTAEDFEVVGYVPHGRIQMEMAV

[1] = Table 17, pIC50 = -log10 IC50, at least three replicates, read-out: tcDHFR pIC50-DHFR primary assay (converted)
[2] = Table 17, pIC50 = -log10 IC50, at least three replicates, read-out: hDHFR pIC50-DHFR primary assay (converted)
[3] = Table 16, pIC50 = -log10 IC50, at least three replicates, read-out: hDHFR pIC50-DHFR primary assay (converted)
[4] = Table 16, pIC50 = -log10 IC50, at least three replicates, read-out: tgDHFR pIC50-DHFR primary assay (converted)

Sequence of T. cruzi DHFR (tcDHFR) (Q27793 whole entry): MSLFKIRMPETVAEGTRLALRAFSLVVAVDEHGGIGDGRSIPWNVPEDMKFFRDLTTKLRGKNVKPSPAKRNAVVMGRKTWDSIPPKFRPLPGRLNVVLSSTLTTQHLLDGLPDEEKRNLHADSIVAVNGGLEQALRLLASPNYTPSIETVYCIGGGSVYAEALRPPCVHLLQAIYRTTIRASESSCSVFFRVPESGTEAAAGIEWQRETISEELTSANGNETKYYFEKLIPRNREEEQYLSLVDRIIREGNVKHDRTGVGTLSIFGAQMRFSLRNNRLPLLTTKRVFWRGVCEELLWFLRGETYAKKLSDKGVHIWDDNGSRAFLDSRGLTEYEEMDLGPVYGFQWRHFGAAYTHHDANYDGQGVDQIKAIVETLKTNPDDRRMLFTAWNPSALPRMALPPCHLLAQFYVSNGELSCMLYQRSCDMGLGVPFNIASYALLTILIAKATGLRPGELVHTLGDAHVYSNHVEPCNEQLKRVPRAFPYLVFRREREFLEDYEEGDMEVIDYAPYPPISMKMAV

Row | Structure (SMILES) | IC50 (hDHFR; [3]) [nM] | Average DHFR selectivity (h/tg) (T. gondii DHFR (tgDHFR); Table 16) | IC50 (T. gondii DHFR (tgDHFR); [4]) [nM] | IC50 (T. gondii DHFR (tgDHFR)) [nM] | other results
1 | Nc1ncc(N2CCN(c3cc(Cl)ccn3)CC2)c(N)n1 [Compound 148, 5-(4-(4-chloropyridin-2-yl)piperazin-1-yl)pyrimidine-2,4-diamine] | – | – | – | – | Average DHFR selectivity (h/tc) (T. cruzi DHFR (tcDHFR); Table 17): 94.81; IC50 (T. cruzi DHFR (tcDHFR); [1]): 22.9 nM; IC50 (hDHFR; [2]): 2190 nM
2 | Nc1ncc(N2CCN(c3cncc(Br)c3)CC2)c(N)n1 [Compound 145, 5-(4-(5-bromopyridin-3-yl)piperazin-1-yl)pyrimidine-2,4-diamine] | – | – | – | – | Average DHFR selectivity (h/tc) (T. cruzi DHFR (tcDHFR); Table 17): 56.7; IC50 (T. cruzi DHFR (tcDHFR); [1]): 21.6 nM; IC50 (hDHFR; [2]): 1170 nM
3 | Nc1ncc(N2CCN(c3ccc(F)c(Cl)c3)CC2)c(N)n1 [Compound 143, 5-(4-(3-chloro-4-fluorophenyl)piperazin-1-yl)pyrimidine-2,4-diamine] | – | – | – | – | Average DHFR selectivity (h/tc) (T. cruzi DHFR (tcDHFR); Table 17): 41.735; IC50 (T. cruzi DHFR (tcDHFR); [1]): 16.6 nM; IC50 (hDHFR; [2]): 684 nM
4 | Nc1ncc(N2CCN(c3cnc(C(F)(F)F)nc3)CC2)c(N)n1 [Compound 142, 5-(4-(2-(trifluoromethyl)pyrimidin-5-yl)piperazin-1-yl)pyrimidine-2,4-diamine] | – | – | – | – | Average DHFR selectivity (h/tc) (T. cruzi DHFR (tcDHFR); Table 17): 206.5; IC50 (T. cruzi DHFR (tcDHFR); [1]): 38.5 nM; IC50 (hDHFR; [2]): 7630 nM
5 | Nc1ncc(N2CCN(c3cccc(C4CCCOC4)c3)CC2)c(N)n1 (stereo not shown) [Compound 179] | – | – | – | – | Average DHFR selectivity (h/tc) (T. cruzi DHFR (tcDHFR); Table 17): 17.495; IC50 (T. cruzi DHFR (tcDHFR); [1]): 28.8 nM; IC50 (hDHFR; [2]): 484 nM
6 | CCc1nc(N)nc(N)c1-c1ccc(Cl)cc1 [pyrimethamine, reference compound] | – | – | – | – | IC50 (T. cruzi DHFR (tcDHFR)): 1000 nM
7 | COc1ncc(-c2cccc(N3CC=C(c4cnc(N)nc4N)CC3)c2)cn1 [Compound 182, 5-(1-(3-(2-methoxypyrimidin-5-yl)phenyl)-1,2,3,6-tetrahydropyridin-4-yl)pyrimidine-2,4-diamine] | 77.6 | 37.84 | 2.04 | – | –
8 | C[C@H]1CN(c2cnc(N)nc2N)CCN1c1cccc(C2=CCOCC2)c1 [Compound 192, (S)-5-(4-(3-(3,6-dihydro-2H-pyran-4-yl)phenyI)-3-methylpiperazin-1-yl)pyrimidine-2,4-diamine] | 479 | 17.89 | 27.5 | – | –
9 | COc1cccc(N2CCN(c3cnc(N)nc3N)CC2)c1 [Compound 9, 5-(4-(3-methoxyphenyl)piperazin-1-yl)pyrimidine-2,4-diamine] | – | – | – | – | IC50 (T. cruzi DHFR (tcDHFR)): 28.8 nM
10 | Cc1nc(N)nc(N)c1N1CCN(c2ccccc2)CC1 [Compound 47, 6-methyl-5-(4-phenylpiperazin-1-yl)pyrimidine-2,4-diamine] | 2240 | – | – | 26.3 | –
11 | CCc1nc(N)nc(N)c1N1CCN(c2ccc(C)cn2)CC1 [Compound 45, 6-ethyl-5-(4-(5-methylpyridin-2-yl)piperazin-1-yl)pyrimidine-2,4-diamine] | 794 | – | – | 5.89 | –
12 | Cc1ccc(N2CCN(c3cnc(N)nc3N)CC2)cc1 [Compound 8, 5-(4-(p-tolyl)piperazin-1-yl)pyrimidine-2,4-diamine] | – | – | – | – | IC50 (T. cruzi DHFR (tcDHFR)): 18.2 nM
13 | COc1ncc(-c2cc(N3CCN(c4cnc(N)nc4N)CC3)ccn2)cn1 [Compound 163] | 155 | 23.00 | 6.76 | – | –
14 | COc1ncc(-c2cccc(N3CCN(c4cnc(N)nc4N)CC3)c2F)cn1 [Compound 159] | 2340 | 80.32 | 30.2 | – | –
15 | CCc1nc(N)nc(N)c1N1CCN(c2cccc(OC)c2)CC1 [Compound 33, 6-ethyl-5-(4-(3-methoxyphenyl)piperazin-1-yl)pyrimidine-2,4-diamine] | – | – | – | 4.37 | IC50 (hDHFR; hDHFR pIC50-DHFR primary assay): 525 nM
16 | CCc1nc(N)nc(N)c1N1CCN(c2cccc(C)c2)CC1 [Compound 31, 6-ethyl-5-(4-(m-tolyl)piperazin-1-yl)pyrimidine-2,4-diamine] | 417 | – | – | 3.47 | –
17 | Cc1nc(N)nc(N)c1N1CCN(c2cccc(Cl)c2)CC1 [Compound 46, 5-(4-(3-chlorophenyl)piperazin-1-yl)-6-methylpyrimidine-2,4-diamine] | – | 29.68 | – | 8.13 | IC50 (hDHFR): 240 nM
18 | N#Cc1cccc(-c2cccc(N3CCN(c4cnc(N)nc4N)CC3)c2)c1 [Compound 67] | 302 | – | – | 3.89 | –
19 | CCc1nc(N)nc(N)c1N1CCN(c2ccc(F)cn2)CC1 [Compound 44, 6-ethyl-5-(4-(5-fluoropyridin-2-yl)piperazin-1-yl)pyrimidine-2,4-diamine] | 295 | – | – | 4.17 | –

Row | Structure (SMILES) | IC50 (hDHFR; [3]) [nM] | Average DHFR selectivity (h/tg) (T. gondii DHFR (tgDHFR); Table 16) | IC50 (T. gondii DHFR (tgDHFR); [4]) [nM] | IC50 (T. gondii DHFR (tgDHFR)) [nM] | other results
20 | COc1ncc(-c2cc(N3CCN(c4cnc(N)nc4N)CC3)ccc2F)cn1 [Compound 160] | 389 | 156.11 | 2.51 | – | –
21 | CCc1ncc(-c2cccc(N3CCN(c4cnc(N)nc4N)CC3)c2)cn1 [Compound 95] | 1580 | – | – | 7.24 | IC50 (hDHFR; Table 18, pIC50 = -log10 IC50, at least three replicates, read-out: hDHFR pIC50-DHFR primary assay (converted)): 1410 nM
22 | CCCc1nc(N)nc(N)c1N1CCN(c2ccccn2)CC1 [Compound 56, 6-propyl-5-(4-(pyridin-2-yl)piperazin-1-yl)pyrimidine-2,4-diamine] | 6760 | – | – | 25.7 | –
23 | Nc1ncc(N2CCN(c3cccc(N4CCOCC4)c3)CC2)c(N)n1 [Compound 25, 5-(4-(3-morpholinophenyl)piperazin-1-yl)pyrimidine-2,4-diamine] | 14100 | – | – | 138 | –
24 | COc1ncccc1-c1cccc(N2CCN(c3cnc(N)nc3N)CC2)c1 [Compound 80] | 1020 | – | – | 6.17 | –
25 | CCc1nc(N)nc(N)c1N1CCN(c2ccccc2)CC1 [Compound 28, 6-ethyl-5-(4-phenylpiperazin-1-yl)pyrimidine-2,4-diamine] | 1350 | – | – | 5.75 | –
26 | CCCc1nc(N)nc(N)c1N1CCC(c2ccccc2)CC1 [Compound 51, 5-(4-phenylpiperidin-1-yl)-6-propylpyrimidine-2,4-diamine] | 2450 | – | – | 11.7 | –
27 | Cc1ncc(-c2cccc(C3CCN(c4cnc(N)nc4N)CC3)c2)cn1 [Compound 113, 5-(4-(3-(2-methylpyrimidin-5-yl)phenyl)piperidin-1-yl)pyrimidine-2,4-diamine] | 372 | – | – | 6.17 | –
28 | CCc1nc(N)nc(N)c1N1CCN(c2ccccn2)CC1 [Compound 34, 6-ethyl-5-(4-(pyridin-2-yl)piperazin-1-yl)pyrimidine-2,4-diamine] | 1020 | – | – | 6.46 | –
29 | COc1ncc(-c2cccc(N3CCN(c4cnc(N)nc4N)CC3)n2)cn1 [Compound 158] | 18.2 | 17.78 | 1.02 | – | –
30 | C[C@@H]1CN(c2cnc(N)nc2N)CCN1c1cccc(C2CCOCC2)c1 [Compound 176] | 107 | 47.03 | 2.29 | – | –
31 | Nc1ncc(N2CCN(c3ccc(Cl)c(Cl)c3)CC2)c(N)n1 [Compound 1, 5-(4-(3,4-dichlorophenyl)piperazin-1-yl)pyrimidine-2,4-diamine] | 75.9 | – | – | 13.8 | –
32 | COc1ncc(-c2cc(F)cc(N3CCN(c4cnc(N)nc4N)CC3)c2)cn1 [Compound 161] | 138 | 51.27 | 2.69 | – | –
33 | CN(Cc1cnc2nc(N)nc(N)c2n1)c1ccc(C(=O)N[C@@H](CCC(=O)O)C(=O)O)cc1 [Methotrexate] | – | – | – | – | IC50 (T. cruzi DHFR (tcDHFR)): 1.1 nM
34 | C[C@@H]1CN(c2cnc(N)nc2N)CCN1c1cccc(C2=CCOCC2)c1 [Compound 194, (R)-5-(4-(3-(3,6-dihydro-2H-pyran-4-yl)phenyl)-3-methylpiperazin-1-yl)pyrimidine-2,4-diamine] | 33.1 | 18.10 | 1.82 | – | –
35 | Nc1ncc(N2CCN(c3cccc(Br)c3)CC2)c(N)n1 [Compound 11, 5-(4-(3-bromophenyl)piperazin-1-yl)pyrimidine-2,4-diamine] | 437 | – | – | 11.7 | –
36 | COc1ncc(-c2ccnc(N3CCN(c4cnc(N)nc4N)CC3)c2)cn1 [Compound 165] | 355 | 82.03 | 4.37 | – | –
37 | COc1ncc(-c2cncc(N3CCN(c4cnc(N)nc4N)CC3)c2)cn1 [Compound 162] | 1450 | 117.08 | 12.3 | – | –
38 | C[C@H]1CN(c2cnc(N)nc2N)CCN1c1cccc(C2CCOCC2)c1 [Compound 174] | 955 | 30.69 | 31.6 | – | –
